Test results reported in ChEMBL document CHEMBL1156714, “Microwave induced synthesis of novel 8,9-dihydro-7H-pyrimido[4,5-b][1,4]diazepines as potential antitumor agents” (2008).

What was measured:
Format in all cases: functional
[1] = system: SF-295; test: Growth inhibition of human SF295 cells after 48 hrs by SRB assay; conditions: SF-295, 48 h
[2] = system: Malme-3M; test: Growth inhibition of human MALME-3M cells after 48 hrs by SRB assay
[3] = system: NCI-H226; test: Growth inhibition of human NCI-H226 cells after 48 hrs by SRB assay; conditions: NCI-H226, 48 h
[4] = system: T47D; test: Growth inhibition of human T47D cells after 48 hrs by SRB assay
[5] = system: MDA-MB-231; test: Growth inhibition of human MDA-MB-231 cells after 48 hrs by SRB assay; conditions: MDA-MB-231, 48 h
[6] = system: MCF7; test: Growth inhibition of human MCF7 cells after 48 hrs by SRB assay; conditions: MCF7, 48 h
[7] = system: HCC 2998; test: Growth inhibition of human HCC2998 cells after 48 hrs by SRB assay; conditions: HCC 2998, 48 h
[8] = read-out: LC50 (the source's name)

Structure (SMILES): Cc1ccc(C2=Nc3c(N)ncnc3NC(c3ccc4c(c3)OCO4)C2)cc1 (racemic)
- GI50 [1]: 4.98 µM
- LC50 [1]: > 100 µM
- GI50 [2]: 3.01 µM
- CC50 [2, 8]: > 100 µM
- GI50 [3]: 12.6 µM
- CC50 [3, 8]: > 100 µM
- GI50 [4]: 5.72 µM
- CC50 [4, 8]: > 100 µM
- GI50 [5]: 4.37 µM
- CC50 [5, 8]: 55.6 µM
- GI50 [6]: 3.42 µM
- LC50 [6]: > 100 µM
- GI50 [7]: 6.29 µM
- LC50 (concentration killing 50% of cells) [7]: > 100 µM
